From patent EP1718648B1, “TRICYCLIC IMIDAZOPYRIDINES AND INTERMEDIATES FOR THE SYNTHESIS THEREOF” (Nycomed GmbH, priority 2004, dated 2005)

System: pentagastrin-stimulated acid secretion of the perfused rat stomach
Experiment: Testing of the secretion-inhibiting action on the perfused rat stomach
Details: Dose 1.0 µmol/kg i.d. (intraduodenal), in vivo; anesthetized CD rat, female; pentagastrin 1 µg/kg i.v. continuous infusion
Excerpt: The compounds of the formula 2 according to the invention investigated in the model mentioned below have been provided with letters which correspond to the letters of these compounds in the examples.
In Table A which follows, the influence of the compounds of the formula 2 according to the invention on the pentagastrin-stimulated acid secretion of the perfused rat stomach after intraduodenal administration in vivo is shown. Table A
The abdomen of anesthetized rats (CD rat, female, 200-250 g; 1.5 g/kg i.m. urethane) was opened after tracheotomy by a median upper abdominal incision and a PVC catheter was fixed transorally in the esophagus and another via the pylorus such that the ends of the tubes just projected into the gastric lumen. The catheter leading from the pylorus led outward into the right abdominal wall through a side opening.
After thorough rinsing (about 50-100 ml), warm (37°C) physiological NaCl solution was continuously passed through the stomach (0.5 ml/min, pH 6.8-6.9; Braun-Unita I). The pH (pH meter 632, glass electrode EA 147; φ = 5 mm, Metrohm) and, by titration with a freshly prepared 0.01 N NaOH solution to pH 7 (Dosimat 665 Metrohm), the secreted HCl were determined in the effluent in each case collected at an interval of 15 minutes.
The gastric secretion was stimulated by continuous infusion of 1 µg/kg (=1.65 ml/h) of i.v. pentagastrin (left femoral vein) about 30 min after the end of the operation (i.e. after determination of 2 preliminary fractions). The substances to be tested were administered intraduodenally in a 2.5 ml/kg liquid volume 60 min after the start of the continuous pentagastrin infusion.
The body temperature of the animals was kept at a constant 37.8-38°C by infrared irradiation and heat pads (automatic, stepless control by means of a rectal temperature sensor).

| Compound | Inhibition of acid secretion (%) |
| --- | --- |
| CNC(=O)c1cn2c(C)c(C)nc2c2c1CCC(c1ccccc1)N2 (stereo not drawn) [c, 2,3-Dimethyl-8-phenyl-6,7,8,9-tetrahydro-1,3a,9-triaza-cyclopenta[a]naphthalene-5-carboxylic Acid Methylamide] | > 50 |
| Cc1nc2c3c(c(C(=O)N(C)C)cn2c1C)CCC(c1ccccc1)N3 (stereo not drawn) [e, 2,3-Dimethyl-8-phenyl-6,7,8,9-tetrahydro-1,3a,9-triaza-cyclopenta[a]naphthalene-5-carboxylic Acid Dimethylamide] | > 50 |
| Cc1nc2c3c(c(C(N)=O)cn2c1C)CCC(c1ccccc1)N3 (stereo not drawn) [f, 2,3-Dimethyl-8-phenyl-6,7,8,9-tetrahydro-1,3a,9-triaza-cyclopenta[a]naphthalene-5-carboxylic Acid Amide] | > 50 |
| Cc1nc2c3c(c(C(=O)N4CCCC4)cn2c1C)CCC(c1ccccc1)N3 (stereo not drawn) [h, 1-(2,3-Dimethyl-8-phenyl-6,7,8,9-tetrahydro-1,3a,9-triaza-cyclopenta[a]naphthalen-5-yl)-1-pyrrolidin-1-yl-methanone] | > 50 |
| Cc1nc2c3c(c(C(=O)N(C)C)cn2c1C)CC[C@@H](c1ccccc1)N3 [j, (8S)-2,3-Dimethyl-8-phenyl-6,7,8,9-tetrahydro-1,3a,9-triaza-cyclopenta[a]naphthalene-5-carboxylic Acid Dimethylamide] | > 50 |
| Cc1nc2c3c(c(C(=O)N(C)C)cn2c1C)CC[C@H](c1ccccc1)N3 [k, (8R)-2,3-Dimethyl-8-phenyl-6,7,8,9-tetrahydro-1,3a,9-triaza-cyclopenta[a]naphthalene-5-carboxylic Acid Dimethylamide] | < 50 |
| CNC(=O)c1cn2c(C)c(C)nc2c2c1CC[C@H](c1ccccc1)N2 [l, (8R)-2,3-Dimethyl-8-phenyl-6,7,8,9-tetrahydro-1,3a,9-triaza-cyclopenta[a]naphthalene-5-carboxylic Acid Methylamide] | < 50 |
| CNC(=O)c1cn2c(C)c(C)nc2c2c1CC[C@@H](c1ccccc1)N2 [m, (8S)-2,3-Dimethyl-8-phenyl-6,7,8,9-tetrahydro-1,3a,9-triaza-cyclopenta[a]naphthalene-5-carboxylic Acid Methylamide] | > 50 |
| Cc1nc2c3c(c(C(=O)NC4CC4)cn2c1C)CC[C@H](c1ccccc1)N3 [n, (8R)-2,3-Dimethyl-8-phenyl-6,7,8,9-tetrahydro-1,3a,9-triaza-cyclopenta[a]naphthalene-5-carboxylic Acid Cyclopropylamide] | < 50 |
| Cc1nc2c3c(c(C(=O)NC4CC4)cn2c1C)CC[C@@H](c1ccccc1)N3 [o, (8S)-2,3-Dimethyl-8-phenyl-6,7,8,9-tetrahydro-1,3a,9-triaza-cyclopenta[a]naphthalene-5-carboxylic Acid Cyclopropylamide] | > 50 |
| Cc1nc2c3c(c(C(N)=O)cn2c1C)CC[C@H](c1ccccc1)N3 [p, (8R)-2,3-Dimethyl-8-phenyl-6,7,8,9-tetrahydro-1,3a,9-triaza-cyclopenta[a]naphthalene-5-carboxylic Acid Amide] | < 50 |
| Cc1nc2c3c(c(C(N)=O)cn2c1C)CC[C@@H](c1ccccc1)N3 [q, (8S)-2,3-Dimethyl-8-phenyl-6,7,8,9-tetrahydro-1,3a,9-triaza-cyclopenta[a]naphthalene-5-carboxylic Acid Amide] | >50 |
